Consider ten compounds from US12421238B2, “Selective dihydropyrrolopyrimidine JAK2 inhibitors” (CHENGDU JINRUI FOUNDATION BIOTECH CO., LTD., priority 2019, dated 2025).

The target in one test is JAK2 (Homo sapiens, UniProt O60674). The experiment in a line: Kinase activity test on JAK2 (Caliper EZ Reader conversion rate). Conditions: for JAK1/JAK2 / JAK3/JAK2: ratio of IC50 values; for JAK1/JAK2: selectivity for JAK2 over JAK1; for JAK3/JAK2: selectivity for JAK2 over JAK3.
The subject of a further test is TF-1. Put plainly: TF-1 cell proliferation experiment (CellTiter Glo). Format: cell-based. Conditions: Homo sapiens; TF-1 cells, 72 hours; read-out: TF-1 (μM), proliferation inhibition. (In general: In ATP-based viability assays light output follows the ATP content of the culture.)
A further test concerns the target JAK1 (Homo sapiens, UniProt P23458). Put plainly: Kinase activity test on JAK1 (Caliper EZ Reader conversion rate).
A further test concerns HEL92.1.7. The experiment in a line: HEL92.1.7 cell proliferation experiment (Cell Titer-Glo). It counts as cell-based. The settings on record: Homo sapiens, HEL 92.1.7; HEL92.1.7 cells, 72 hours.
For a further test, the target named is T1, JAK3 (Homo sapiens, UniProt P52333).
T1 sequence (P52333 1-1124): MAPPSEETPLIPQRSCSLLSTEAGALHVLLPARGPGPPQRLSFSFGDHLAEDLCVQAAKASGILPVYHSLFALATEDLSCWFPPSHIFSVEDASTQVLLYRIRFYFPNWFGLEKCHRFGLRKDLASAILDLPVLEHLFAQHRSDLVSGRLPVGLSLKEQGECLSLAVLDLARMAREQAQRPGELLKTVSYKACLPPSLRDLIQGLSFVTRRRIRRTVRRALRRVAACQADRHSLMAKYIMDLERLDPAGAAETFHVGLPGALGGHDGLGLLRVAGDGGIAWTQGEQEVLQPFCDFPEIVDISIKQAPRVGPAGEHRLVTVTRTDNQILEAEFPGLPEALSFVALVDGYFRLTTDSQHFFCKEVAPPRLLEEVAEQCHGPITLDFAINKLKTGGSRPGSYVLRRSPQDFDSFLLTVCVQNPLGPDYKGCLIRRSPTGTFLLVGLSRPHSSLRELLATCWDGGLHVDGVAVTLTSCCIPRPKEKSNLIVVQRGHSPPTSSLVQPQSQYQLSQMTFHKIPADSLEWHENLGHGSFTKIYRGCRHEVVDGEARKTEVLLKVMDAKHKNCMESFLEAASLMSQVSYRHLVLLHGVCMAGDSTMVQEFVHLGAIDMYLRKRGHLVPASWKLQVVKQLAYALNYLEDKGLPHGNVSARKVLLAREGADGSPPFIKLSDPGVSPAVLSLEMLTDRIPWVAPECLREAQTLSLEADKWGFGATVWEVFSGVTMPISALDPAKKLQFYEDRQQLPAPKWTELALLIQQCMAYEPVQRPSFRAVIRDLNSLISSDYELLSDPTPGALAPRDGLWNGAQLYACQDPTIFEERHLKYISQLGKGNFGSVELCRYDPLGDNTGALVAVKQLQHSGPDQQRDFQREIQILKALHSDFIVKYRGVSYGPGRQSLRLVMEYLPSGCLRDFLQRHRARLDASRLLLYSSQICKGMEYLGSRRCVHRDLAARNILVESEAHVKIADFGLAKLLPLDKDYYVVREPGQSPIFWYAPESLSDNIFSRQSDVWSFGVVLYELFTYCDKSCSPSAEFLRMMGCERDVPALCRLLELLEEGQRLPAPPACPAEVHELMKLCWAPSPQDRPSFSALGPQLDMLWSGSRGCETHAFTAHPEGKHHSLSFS
The experiment in a line: Kinase activity test on JAK3 (Caliper EZ Reader conversion rate).

Chain of JAK2 (O60674 whole entry): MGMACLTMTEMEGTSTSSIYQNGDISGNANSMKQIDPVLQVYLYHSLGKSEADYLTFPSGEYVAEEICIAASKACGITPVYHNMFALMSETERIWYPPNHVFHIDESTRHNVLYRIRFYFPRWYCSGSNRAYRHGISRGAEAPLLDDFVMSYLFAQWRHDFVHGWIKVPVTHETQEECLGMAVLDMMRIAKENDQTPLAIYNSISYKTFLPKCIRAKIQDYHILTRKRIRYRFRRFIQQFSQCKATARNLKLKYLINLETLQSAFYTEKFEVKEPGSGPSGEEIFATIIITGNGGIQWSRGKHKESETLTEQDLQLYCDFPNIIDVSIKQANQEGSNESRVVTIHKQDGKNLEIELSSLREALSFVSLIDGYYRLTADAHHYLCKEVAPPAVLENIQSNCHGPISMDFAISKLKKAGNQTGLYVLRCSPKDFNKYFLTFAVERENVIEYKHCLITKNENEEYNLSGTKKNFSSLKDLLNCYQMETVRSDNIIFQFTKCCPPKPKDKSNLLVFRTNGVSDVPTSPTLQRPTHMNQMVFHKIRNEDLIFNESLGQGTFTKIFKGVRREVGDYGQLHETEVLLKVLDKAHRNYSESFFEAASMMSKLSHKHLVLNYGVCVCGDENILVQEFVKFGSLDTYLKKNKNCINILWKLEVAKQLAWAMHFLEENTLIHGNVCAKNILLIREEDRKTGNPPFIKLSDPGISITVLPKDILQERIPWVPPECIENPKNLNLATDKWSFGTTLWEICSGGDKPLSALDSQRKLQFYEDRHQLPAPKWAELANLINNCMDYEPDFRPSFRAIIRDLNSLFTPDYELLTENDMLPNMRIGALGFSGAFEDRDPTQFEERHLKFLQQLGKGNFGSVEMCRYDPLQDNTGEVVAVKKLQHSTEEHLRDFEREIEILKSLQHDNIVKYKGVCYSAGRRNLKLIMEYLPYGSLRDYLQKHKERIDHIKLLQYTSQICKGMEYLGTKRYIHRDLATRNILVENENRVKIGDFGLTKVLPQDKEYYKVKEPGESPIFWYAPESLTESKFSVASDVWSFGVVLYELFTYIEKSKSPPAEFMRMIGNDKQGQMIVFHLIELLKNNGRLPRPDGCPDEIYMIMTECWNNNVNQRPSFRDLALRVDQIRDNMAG
Chain of JAK1 (P23458 whole entry): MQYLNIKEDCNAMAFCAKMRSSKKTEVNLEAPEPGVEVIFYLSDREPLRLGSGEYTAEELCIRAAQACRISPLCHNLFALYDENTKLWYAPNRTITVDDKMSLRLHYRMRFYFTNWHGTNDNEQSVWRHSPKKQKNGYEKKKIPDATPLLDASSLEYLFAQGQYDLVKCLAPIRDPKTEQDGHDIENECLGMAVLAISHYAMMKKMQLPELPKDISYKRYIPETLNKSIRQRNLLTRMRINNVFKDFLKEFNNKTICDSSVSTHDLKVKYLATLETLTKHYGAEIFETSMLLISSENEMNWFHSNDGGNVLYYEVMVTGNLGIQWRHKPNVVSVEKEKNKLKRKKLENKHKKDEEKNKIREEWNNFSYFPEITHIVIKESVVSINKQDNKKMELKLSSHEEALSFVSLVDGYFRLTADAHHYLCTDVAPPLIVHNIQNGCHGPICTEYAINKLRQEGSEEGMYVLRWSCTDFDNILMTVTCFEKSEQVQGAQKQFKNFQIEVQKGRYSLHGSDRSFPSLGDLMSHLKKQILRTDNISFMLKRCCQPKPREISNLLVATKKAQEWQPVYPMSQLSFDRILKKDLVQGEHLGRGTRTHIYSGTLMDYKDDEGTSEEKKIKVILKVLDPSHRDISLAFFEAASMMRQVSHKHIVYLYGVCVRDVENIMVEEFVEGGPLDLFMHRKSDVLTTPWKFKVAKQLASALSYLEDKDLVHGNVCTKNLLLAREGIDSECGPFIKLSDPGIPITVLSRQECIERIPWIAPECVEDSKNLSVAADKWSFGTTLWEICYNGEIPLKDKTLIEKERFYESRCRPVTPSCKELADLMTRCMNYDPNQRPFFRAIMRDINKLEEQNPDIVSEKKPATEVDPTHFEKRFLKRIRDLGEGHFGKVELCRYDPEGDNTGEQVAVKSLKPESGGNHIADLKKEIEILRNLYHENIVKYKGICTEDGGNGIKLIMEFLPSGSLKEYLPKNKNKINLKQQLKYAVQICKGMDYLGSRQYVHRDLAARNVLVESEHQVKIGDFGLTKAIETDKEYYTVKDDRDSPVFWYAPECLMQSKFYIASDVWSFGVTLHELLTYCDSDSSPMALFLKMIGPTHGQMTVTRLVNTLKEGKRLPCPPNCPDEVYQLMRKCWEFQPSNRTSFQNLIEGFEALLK

As to `CN1CCC(c2ccc(Nc3ncc4c(n3)N(c3cccc(S(=O)(=O)NC(C)(C)C)c3)CC4)cc2)CC1` [Compound I-21], the IC50 is 0.8 nM against JAK2; 0.15 µM in the test on TF-1; 101 nM against JAK1; 0.22 µM in the test on HEL92.1.7; 988 nM on JAK3. Further, the JAK1/JAK2 at JAK2 is listed as 126. The JAK3/JAK2 at JAK2 is 1235.

As for `CCN1CCN(Cc2ccc(Nc3ncc4c(n3)N(c3cccc(S(=O)(=O)NC(C)(C)C)c3)CC4)cc2)CC1` [Compound I-8], the IC50 came to 1.2 nM against JAK2; 0.23 µM with TF-1; 151 nM against JAK1; 0.33 µM in the test on HEL92.1.7; 1000 nM against JAK3. The JAK1/JAK2 at JAK2 was determined as 126. Besides, the JAK3/JAK2 at JAK2 is on record as 833.

With `CC(C)(C)NS(=O)(=O)c1cccc(N2CCc3cnc(Nc4ccc(CN5CCS(=O)(=O)CC5)cc4)nc32)c1` [Compound I-9], the IC50 on JAK2 is 1.7 nM; in the test with TF-1, 0.21 µM; against JAK1, 191 nM; with HEL92.1.7, 0.17 µM; against JAK3, 1330 nM. Also, the JAK1/JAK2 at JAK2 is 112. In addition, the JAK3/JAK2 at JAK2 was 782.

As to `CC(C)(C)NS(=O)(=O)c1cccc(N2CCc3cnc(Nc4ccc(OCCN5CCS(=O)(=O)CC5)cc4)nc32)c1` [Compound I-6], the IC50 on JAK2 was found to be 0.75 nM; in the test with TF-1, 0.15 µM; against JAK1 it was 97 nM; in the test with HEL92.1.7, 0.35 µM; against JAK3, 890 nM. The JAK1/JAK2 at JAK2 was 129. In addition, the JAK3/JAK2 on JAK2 is recorded as 1187.

In the case of `CC(C)(C)NS(=O)(=O)c1cccc(N2CCc3cnc(Nc4ccc(N5CCCCC5)cc4)nc32)c1` [Compound I-18], the IC50 against JAK2 was 0.7 nM; in the test with TF-1, 0.15 µM; against JAK1, 109 nM; in the test on HEL92.1.7, 0.2 µM; against JAK3 it was 1110 nM. Also, the JAK1/JAK2 on JAK2 was 156. Besides, the JAK3/JAK2 on JAK2 was found to be 1588.

`CC(C)(C)NS(=O)(=O)c1cccc(N2CCc3cnc(Nc4ccc(N5CCNCC5)cc4)nc32)c1` [Compound I-16]: the IC50 was 2 nM against JAK2; 0.15 µM in the test with TF-1; 203 nM against JAK1; 0.21 µM in the test with HEL92.1.7; 1390 nM against JAK3. The JAK1/JAK2 on JAK2 amounted to 101. Further, the JAK3/JAK2 at JAK2 is given as 695.

As to `CN1CCC(Cc2ccc(Nc3ncc4c(n3)N(c3cccc(S(=O)(=O)NC(C)(C)C)c3)CC4)cc2)CC1` [Compound I-7], the IC50 on JAK2 came to 0.9 nM; in the test on TF-1 it was 0.19 µM; against JAK1 it was 103 nM; in the test with HEL92.1.7, 0.25 µM; against JAK3 it was 900 nM. The JAK1/JAK2 on JAK2 turned out to be 114. In addition, the JAK3/JAK2 on JAK2 amounted to 1000.

`CC(C)(C)NS(=O)(=O)c1cccc(N2CCc3cnc(Nc4ccc(CN5CCCC5)cc4)nc32)c1` [Compound I-22]: the IC50 is 0.6 nM against JAK2; 0.22 µM in the test on TF-1; 105 nM at JAK1; 0.24 µM in the test with HEL92.1.7; 873 nM at JAK3. Besides, at JAK2, the JAK1/JAK2 came out at 175. The JAK3/JAK2 at JAK2 was determined as 1455.

For `CC(C)(C)NS(=O)(=O)c1cccc(N2CCc3cnc(Nc4ccc(N5CCOCC5)cc4)nc32)c1` [Compound I-17], the IC50 stood at 2.2 nM against JAK2; 0.14 µM in the test on TF-1; 221 nM against JAK1; 0.25 µM in the test with HEL92.1.7; 1560 nM against JAK3. Moreover, the JAK1/JAK2 on JAK2 came to 100. The JAK3/JAK2 on JAK2 came out at 709.

`CC(C)(C)NS(=O)(=O)c1cccc(N2CCc3cnc(Nc4ccc(CN5CCOCC5)cc4)nc32)c1` [Compound I-11]: the IC50 at JAK2 amounted to 0.8 nM; in the test on TF-1, 0.17 µM; on JAK1, 105 nM; with HEL92.1.7, 0.24 µM; at JAK3, 980 nM. Besides, the JAK1/JAK2 on JAK2 was 131. The JAK3/JAK2 at JAK2 is 1225.
